This note sets out measurements from PubChem BioAssay (NCI).

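Grown in 96-well plates, cells were treated for 48 hours with each compound at five concentrations. Insufficient inhibition: endpoint recorded as highest concentration tested. GI50 is the concentration that inhibits growth by half. Definition used: TGI = concentration required for complete inhibition of growth.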

Test systems include HOP-92 NSCLC; LOX IMVI melanoma; MALME-3M melanoma; NCI-H522 lung; OVCAR-4 ovarian; SK-MEL-28 melanoma; SK-OV-3 ovarian; SN12C renal; SW-620 colon; K-562 leukemia.
Experiment in all cases: DTP human tumour cell line panel, 48 h

A word on the GI50: it is the concentration giving 50% growth inhibition. In general, TGI refers to the concentration giving total growth inhibition. High values mean lower sensitivity of the cells, low ones greater sensitivity of the cells. On to `CC/C(=C(/CC)c1ccc(O)cc1)c1ccc(O)cc1`, for which the GI50 in the experiment with HOP-92 NSCLC is 5.1 µM; in the experiment on LOX IMVI melanoma, 5.75 µM; in the experiment with MALME-3M melanoma, 5.54 µM; in the experiment on NCI-H522 lung it was 5.79 µM; in the experiment on OVCAR-4 ovarian it was 8.06 µM; with SK-MEL-28 melanoma, 6.96 µM. For the same molecule, the GI50 with SK-OV-3 ovarian is 3.63 µM; in the experiment with SN12C renal, 5.9 µM; in the experiment on SW-620 colon it was 3.88 µM. Further, the concentration for total growth inhibition (TGI) in the experiment with HOP-92 NSCLC worked out at 17.2 µM; with LOX IMVI melanoma, 19.4 µM; in the experiment with MALME-3M melanoma, 25.1 µM; in the experiment on NCI-H522 lung, 23 µM; in the experiment on OVCAR-4 ovarian it was 37 µM; in the experiment on SK-MEL-28 melanoma it was 19.9 µM. The TGI amounted to 13 µM with SK-OV-3 ovarian, 28.6 µM in the experiment with SN12C renal and 14.5 µM in the experiment on SW-620 colon.

With `CSc1nc(SC)c2c(C)cn(C3OC(C)C(O)C(O)C3O)c2n1` (stereo not given), the concentration for total growth inhibition (TGI) was 83.4 µM with HOP-92 NSCLC; above 100 µM in the experiment with LOX IMVI melanoma; above 100 µM with MALME-3M melanoma; above 100 µM in the experiment on NCI-H522 lung; above 100 µM in the experiment on OVCAR-4 ovarian; above 100 µM in the experiment with SK-MEL-28 melanoma. Besides, the total growth inhibition concentration (TGI) in the experiment on SK-OV-3 ovarian, with SN12C renal and in the experiment with SW-620 colon was above 100 µM throughout.

Turning to `c1ccc(N2N=NC3C4CC(C5c6ccccc6C45)C32)cc1` (stereo not given), the TGI was 54.6 µM in the experiment with HOP-92 NSCLC; above 100 µM in the experiment on K-562 leukemia; 39.6 µM in the experiment on LOX IMVI melanoma; 69.4 µM with MALME-3M melanoma; 50.9 µM in the experiment with NCI-H522 lung; above 100 µM in the experiment on OVCAR-4 ovarian. Further, the TGI in the experiment with SK-OV-3 ovarian, with SN12C renal and with SW-620 colon was above 100 µM in each case.

`C[C@H]1CCC2C(CN3CCCCC3)C(=O)OC2[C@]2(C)C(=O)CC(N3CCCCC3)C12O` (stereo not given in full): the total growth inhibition concentration (TGI) is 7.54 µM with HOP-92 NSCLC; 39.2 µM in the experiment with K-562 leukemia; 47.5 µM with MALME-3M melanoma; 3.25 µM in the experiment on NCI-H522 lung; 32.9 µM in the experiment on SK-MEL-28 melanoma; 79.9 µM in the experiment with SK-OV-3 ovarian. The concentration for total growth inhibition (TGI) in the experiment on SN12C renal was 14.8 µM; with SW-620 colon, 10.3 µM.

As to `C=CCn1c(=O)c(C(=O)NC(=O)OCC)cn(C2CCCCC2)c1=O`, the TGI in the experiment on HOP-92 NSCLC, in the experiment with K-562 leukemia, in the experiment with LOX IMVI melanoma, in the experiment with MALME-3M melanoma, in the experiment on OVCAR-4 ovarian and in the experiment on SK-MEL-28 melanoma was above 100 µM throughout. In addition, the TGI in the experiment on SK-OV-3 ovarian, in the experiment on SN12C renal and in the experiment with SW-620 colon was above 100 µM throughout.

As to `COC(=O)C1=Cc2cn(S(=O)(=O)c3ccc(C)cc3)c3cccc(c23)C(C=C(C)C)N1C(C)=O` (stereo not given), the total growth inhibition concentration (TGI) in the experiment with HOP-92 NSCLC was above 100 µM; with K-562 leukemia, above 100 µM; in the experiment with LOX IMVI melanoma it was above 100 µM; in the experiment with MALME-3M melanoma, 64.6 µM; in the experiment with NCI-H522 lung, 20 µM; in the experiment with OVCAR-4 ovarian, above 100 µM. Further, the total growth inhibition concentration (TGI) in the experiment on SK-OV-3 ovarian, in the experiment with SN12C renal and in the experiment on SW-620 colon was above 100 µM in each case.

For `C/C(CC(=O)Nc1ccc([N+](=O)[O-])cc1)=N\Nc1ccc([N+](=O)[O-])cc1[N+](=O)[O-]`, the total growth inhibition concentration (TGI) is above 100 µM in the experiment on HOP-92 NSCLC; above 100 µM with K-562 leukemia; above 100 µM with LOX IMVI melanoma; above 100 µM in the experiment with MALME-3M melanoma; 85.5 µM in the experiment on NCI-H522 lung; above 100 µM in the experiment on SK-MEL-28 melanoma. The TGI in the experiment with SK-OV-3 ovarian and in the experiment with SW-620 colon was above 100 µM in each case.

In the case of `COc1ccc2c(c1)CC1N(C)CCC13CCCCC23` (stereo not given), the concentration for total growth inhibition (TGI) in the experiment on HOP-92 NSCLC, in the experiment with K-562 leukemia, in the experiment with LOX IMVI melanoma, in the experiment on MALME-3M melanoma, in the experiment with NCI-H522 lung and in the experiment on OVCAR-4 ovarian was above 100 µM in each case. In addition, the TGI in the experiment on SK-MEL-28 melanoma, with SK-OV-3 ovarian and in the experiment on SN12C renal was above 100 µM throughout.

Regarding `Cc1nc2cc(Nc3nc(Nc4ccc(F)cc4)nc(N4CCCC4)n3)ccc2n1Cc1ccccc1`, the GI50 with HOP-92 NSCLC was 1.07 µM; in the experiment with LOX IMVI melanoma, 1.84 µM; with MALME-3M melanoma it was 1.61 µM; in the experiment with NCI-H522 lung it was 1.69 µM; in the experiment on OVCAR-4 ovarian, 1.62 µM; with SK-MEL-28 melanoma it was 1.88 µM. Also, the results for the GI50 in the experiment on SK-OV-3 ovarian, with SN12C renal and with SW-620 colon were 2.18 µM, 1.84 µM and 1.66 µM, respectively. Besides, the TGI in the experiment on HOP-92 NSCLC came to 2.47 µM; with LOX IMVI melanoma, 3.36 µM; in the experiment with MALME-3M melanoma, 3.17 µM; in the experiment with NCI-H522 lung it was 4.07 µM; in the experiment with OVCAR-4 ovarian, 4 µM; in the experiment on SK-MEL-28 melanoma it was 3.92 µM. Moreover, the TGI with SK-OV-3 ovarian worked out at 5.2 µM; in the experiment on SN12C renal, 3.45 µM; in the experiment on SW-620 colon it was 3.14 µM.

Turning to `C=C(C)[C@@H]1CC[C@]2(C(=O)N3CCN(C)CC3)CC[C@]3(C)[C@H](CC[C@@H]4[C@@]5(C)CC[C@H](O)C(C)(C)[C@@H]5CC[C@]43C)[C@@H]12`, the GI50 is 1.69 µM with HOP-92 NSCLC; 1.87 µM with LOX IMVI melanoma; 1.92 µM in the experiment on MALME-3M melanoma; 1.92 µM in the experiment on NCI-H522 lung; 1.77 µM in the experiment on OVCAR-4 ovarian; 1.8 µM in the experiment with SK-MEL-28 melanoma. The values for the GI50 in the experiment with SK-OV-3 ovarian, with SN12C renal and with SW-620 colon were 1.84 µM, 1.72 µM and 1.74 µM, respectively. The TGI with HOP-92 NSCLC was determined as 3.42 µM; in the experiment with LOX IMVI melanoma it was 3.74 µM; in the experiment on MALME-3M melanoma, 3.83 µM; in the experiment with NCI-H522 lung it was 3.8 µM; in the experiment with OVCAR-4 ovarian, 3.37 µM; with SK-MEL-28 melanoma, 3.48 µM. The concentration for total growth inhibition (TGI) with SK-OV-3 ovarian is 3.35 µM; in the experiment with SN12C renal it was 3.46 µM; in the experiment with SW-620 colon, 3.7 µM.

Turning to `C/C(CC(=O)Nc1cccc(C)c1C)=N\NC(N)=S`, the TGI with HOP-92 NSCLC, with K-562 leukemia, with LOX IMVI melanoma, with MALME-3M melanoma, in the experiment on NCI-H522 lung and in the experiment with OVCAR-4 ovarian was above 100 µM in each case. Further, the concentration for total growth inhibition (TGI) in the experiment on SK-MEL-28 melanoma, with SK-OV-3 ovarian and with SN12C renal was above 100 µM in each case.

Consider `C1C[S][Ge]2([S]CCS1)[S]CCSCC[S]2`, for which the GI50 in the experiment on HOP-92 NSCLC, with K-562 leukemia, in the experiment on MALME-3M melanoma, in the experiment with NCI-H522 lung, with OVCAR-4 ovarian and in the experiment with SK-MEL-28 melanoma was above 100 µM each time. Also, the GI50 in the experiment with SK-OV-3 ovarian and with SN12C renal was above 100 µM throughout. The TGI in the experiment with HOP-92 NSCLC, with K-562 leukemia, in the experiment on MALME-3M melanoma, in the experiment on NCI-H522 lung, with OVCAR-4 ovarian and in the experiment with SK-MEL-28 melanoma was above 100 µM each time. The TGI with SK-OV-3 ovarian and with SN12C renal was above 100 µM in each case.
